This is an account of results in patent publication US20220162191A1, “SMALL MOLECULE MODULATORS OF IL-17” (LEO PHARMA A/S, priority 2019, published 2022).

Broadly, the EC50 is the concentration giving half of the maximal effect.

Some results are limits rather than exact numbers.

The assay concerns the target T1, human IL-17AA (Homo sapiens, UniProt Q16552).
T1 construct: host or cells: HEK (human embryonic kidney) cells
T1 sequence (Q16552 24-155) 1: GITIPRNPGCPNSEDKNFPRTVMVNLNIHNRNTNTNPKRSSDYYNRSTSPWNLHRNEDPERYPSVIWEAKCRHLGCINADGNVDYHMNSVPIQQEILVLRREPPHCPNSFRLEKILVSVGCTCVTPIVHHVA
T1 sequence (Q16552 24-155) 2: T1 sequence (Q16552 24-155) 1
The assay can be described thus: IL-8 release assay in human epithelial keratinocytes adult (HEKa). It counts as cell-based. The note with it: 3 ng/ml human IL-17AA + 10 ng/ml human TNFalpha, 68-72 h, IL-8 by HTRF, read-out: Rel EC50 L-8 release assay. The procedure, abridged: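 IL-8 secretion, quantified by HTRF (665/620 nm) as percent of controls, served as the readout after 68–72 h culture of HEKa cells with compound plus IL-17AA (3 ng/ml final) and TNF-alpha (10 ng/ml final). Four-parameter logistic curves gave relative IC50 and Emax.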
On to `Cc1cnn(C)c1-c1ccc(NC(=O)[C@H](Cc2cc(-c3ccc(=O)n(C(C)C)c3)ccc2Cl)NC(=O)C(C)C)cc1` [Example 328, N-[(1S)-1-[[2-chloro-5-(1-isopropyl-6-oxo-3-pyridyl)phenyl]methyl]-2-[4-(2,4-dimethylpyrazol-3-yl)anilino]-2-oxo-ethyl]-2-methyl-propanamide], for which the 50% effective concentration (EC50) is over 1000 nM.
`Cn1cncc1-c1ccc(NC(=O)[C@H](Cc2cc(-c3ccnc(C(C)(O)C4CC4)c3)ccc2Cl)NC(=O)C2(F)CC2)cc1` (stereo partly drawn) [Example 142, N-[(1S)-1-[[2-chloro-5-[2-(1-cyclopropyl-1-hydroxy-ethyl)-4-pyridyl]phenyl]methyl]-2-[4-(3-methylimidazol-4-yl)anilino]-2-oxo-ethyl]-1-fluoro-cyclopropanecarboxamide]: the EC50 is under 100 nM.
On to `Cc1noc(C)c1-c1ccc(NC(=O)C(Cc2cc(-c3ccc(=O)n(C(C)C)c3)ccc2Cl)NC(=O)c2ccnn2C)cc1` (centres unmarked) [Example 93, N-[1-[[2-chloro-5-(1-isopropyl-6-oxo-3-pyridyl)phenyl]methyl]-2-[4-(3,5-dimethylisoxazol-4-yl)anilino]-2-oxo-ethyl]-2-methyl-pyrazole-3-carboxamide], for which the 50% effective concentration (EC50) was in the range of 100 to 1000 nM.
To `Cc1cnn(C)c1-c1ccc(NC(=O)[C@H](Cc2cc(-c3ccc(=O)n(C(C)C)c3)ccc2Cl)NC(=O)CC2CC2)cc1` [Example 336, (2S)-3-[2-chloro-5-(1-isopropyl-6-oxo-3-pyridyl)phenyl]-2-[(2-cyclopropylacetyl)amino]-N-[4-(2,4-dimethylpyrazol-3-yl)phenyl]propanamide] belongs 100 to 1000 nM; to `Cc1cnn(C)c1-c1ccc(NC(=O)[C@@H](NC(=O)C2(F)CC2)[C@@H]2CCc3ccc(-c4cnnc(C5CC5)c4)cc32)cc1` [Example 385, N-[(1S)-1-[(1R)-6-(6-cyclopropylpyridazin-4-yl)indan-1-yl]-2-[4-(2,4-dimethylpyrazol-3-yl)anilino]-2-oxo-ethyl]-1-fluoro-cyclopropanecarboxamide], 100 to 1000 nM; to `Cc1n[nH]c(C)c1-c1ccc(NC(=O)[C@@H](NC(=O)c2ccnn2C)[C@@H]2CCc3ccc(-c4ccc(CN5CCCCC5)cc4)cc32)cc1` [Example 20, N-[(1S)-2-[4-(3,5-dimethyl-1H-pyrazol-4-yl)anilino]-2-oxo-1-[(1R)-6-[4-(1-piperidylmethyl)phenyl]indan-1-yl]ethyl]-2-methyl-pyrazole-3-carboxamide], 100 to 1000 nM.
Turning to `Cc1n[nH]c(C)c1-c1ccc(NC(=O)[C@H](Cc2cc(-c3cccc(CN(C)C)c3)ccc2Cl)NC(=O)c2ccnn2C)cc1` [Example 60, N-[(1S)-1-[[2-chloro-5-[3-[(dimethylamino)methyl]phenyl]phenyl]methyl]-2-[4-(3,5-dimethyl-1H-pyrazol-4-yl)anilino]-2-oxo-ethyl]-2-methyl-pyrazole-3-carboxamide], the EC50 is under 100 nM.
As to `Cc1nocc1C(=O)N[C@@H](Cc1cc(-c2ccc(=O)n(C(C)C)c2)ccc1Cl)C(=O)Nc1ccc(-c2ccnn2C)c(O)c1` [Example 71, N-[(1S)-1-[[2-chloro-5-(1-isopropyl-6-oxo-3-pyridyl)phenyl]methyl]-2-[3-hydroxy-4-(2-methylpyrazol-3-yl)anilino]-2-oxo-ethyl]-3-methyl-isoxazole-4-carboxamide], the EC50 is under 100 nM.
Regarding `Cc1n[nH]c(C)c1-c1ccc(NC(=O)[C@@H](NC(=O)C2(F)CC2)[C@@H]2CCc3ccc(-c4cc(C5CC5)cnn4)cc32)cc1` [Example 384, N-[(1S)-1-[(1R)-6-(5-cyclopropylpyridazin-3-yl)indan-1-yl]-2-[4-(3,5-dimethyl-1H-pyrazol-4-yl)anilino]-2-oxo-ethyl]-1-fluoro-cyclopropanecarboxamide], the EC50 lay in the range of 100 to 1000 nM.
Then `Cc1n[nH]c(C)c1-c1ccc(NC(=O)[C@@H](NC(=O)c2ccnn2C)[C@@H]2CCc3ccc(-c4ccc(CN5CCCC5)cc4)cc32)cc1` [Example 19, N-[(1S)-2-[4-(3,5-dimethyl-1H-pyrazol-4-yl)anilino]-2-oxo-1-[(1R)-6-[4-(pyrrolidin-1-ylmethyl)phenyl]indan-1-yl]ethyl]-2-methyl-pyrazole-3-carboxamide], with 100 to 1000 nM; and `Cc1cnn(C)c1-c1ccc(NC(=O)[C@@H](NC(=O)c2ccnn2C)[C@@H]2CCc3ccc(-c4ccnc(C(C)C)n4)cc32)cc1` [Example 382, N-[(1S)-2-[4-(2,4-dimethylpyrazol-3-yl)anilino]-1-[(1R)-6-(2-isopropylpyrimidin-4-yl)indan-1-yl]-2-oxo-ethyl]-2-methyl-pyrazole-3-carboxamide], with 100 to 1000 nM.
To `Cn1cncc1-c1ccc(NC(=O)[C@H](Cc2cc(-c3cccc([C@H]4COCCN4)c3)ccc2Cl)NC(=O)c2ccnn2C)cc1` [Example 215, N-[(1S)-1-[[2-chloro-5-[3-[(3S)-morpholin-3-yl]phenyl]phenyl]methyl]-2-[4-(3-methylimidazol-4-yl)anilino]-2-oxo-ethyl]-2-methyl-pyrazole-3-carboxamide] belongs 100 to 1000 nM; to `Cc1n[nH]c(C)c1-c1ccc(NC(=O)[C@H](Cc2cc(N3CCOCC3)ccc2Cl)NC(=O)c2ccnn2C)cc1` [Example 311, N-[(1S)-1-[(2-chloro-5-morpholino-phenyl)methyl]-2-[4-(3,5-dimethyl-1H-pyrazol-4-yl)anilino]-2-oxo-ethyl]-2-methyl-pyrazole-3-carboxamide], over 1000 nM.
On to `CC(C)n1cc(-c2ccc(Cl)c(C[C@H](NC(=O)CC3CCC3)C(=O)Nc3ccc(-c4nncn4C)cc3)c2)ccc1=O` [Example 127, (2S)-3-[2-chloro-5-(1-isopropyl-6-oxo-3-pyridyl)phenyl]-2-[(2-cyclobutylacetyl)amino]-N-[4-(4-methyl-1,2,4-triazol-3-yl)phenyl]propanamide], for which the half-maximal effective concentration (EC50) was over 1000 nM.
For `Cc1nocc1C(=O)NC(Cc1cc(-c2ccnc(C(=O)N(C)C3CC3)c2)ccc1Cl)C(=O)Nc1ccc(-c2nncn2C)cc1` (centres unmarked) [Example 306, N-[1-[[2-chloro-5-[2-[cyclopropyl(methyl)carbamoyl]-4-pyridyl]phenyl]methyl]-2-[4-(4-methyl-1,2,4-triazol-3-yl)anilino]-2-oxo-ethyl]-3-methyl-isoxazole-4-carboxamide], the EC50 was over 1000 nM.
Turning to `Cc1cnn(C)c1-c1ccc(NC(=O)[C@@H](NC(=O)C2(F)CC2)[C@@H](c2cccc(-c3cncc(N4C[C@@H]5C[C@H]4CO5)c3)c2)C2CC2)cc1` [Example 347, N-[(1S)-1-[(R)-cyclopropyl-[3-[5-[(1S,4S)-2-oxa-5-azabicyclo[2.2.1]heptan-5-yl]-3-pyridyl]phenyl]methyl]-2-[4-(2,4-dimethylpyrazol-3-yl)anilino]-2-oxo-ethyl]-1-fluoro-cyclopropanecarboxamide], the EC50 was under 100 nM.
Regarding `Cc1n[nH]c(C)c1-c1ccc(NC(=O)[C@@H](NC(=O)c2ccnn2C)[C@@H]2CCCc3ccc(-c4cnn(C(C)(C)C)c4)cc32)cc1` [Example 34, N-[(1S)-1-[(1R)-7-(1-tert-butylpyrazol-4-yl)tetralin-1-yl]-2-[4-(3,5-dimethyl-1H-pyrazol-4-yl)anilino]-2-oxo-ethyl]-2-methyl-pyrazole-3-carboxamide], the EC50 is under 100 nM.
In the case of `Cc1n[nH]c(C)c1-c1ccc(NC(=O)[C@H](Cc2cc(-c3ccnc(N4C[C@@H]5C[C@H]4CN5)c3)ccc2Cl)NC(=O)C2(F)CC2)cc1` [Example 223, N-[(1S)-1-[[2-chloro-5-[2-[(1S,4S)-2,5-diazabicyclo[2.2.1]heptan-2-yl]-4-pyridyl]phenyl]methyl]-2-[4-(3,5-dimethyl-1H-pyrazol-4-yl)anilino]-2-oxo-ethyl]-1-fluoro-cyclopropanecarboxamide], the EC50 is under 100 nM.
For `CC(C)n1cc(-c2ccc(Cl)c(CC(NC(=O)OC(C)(C)C)C(=O)Nc3ccc(-c4cnn[nH]4)cc3)c2)ccc1=O` (centres unmarked) [Example 76, tert-butyl N-[1-[[2-chloro-5-(1-isopropyl-6-oxo-3-pyridyl)phenyl]methyl]-2-oxo-2-[4-(1H-triazol-5-yl)anilino]ethyl]carbamate], the EC50 is over 1000 nM.
In the case of `CC(C)n1cc(-c2cccc(C(c3ccccc3)C(NC(=O)c3ccnn3C)C(=O)Nc3ccc(-c4cncn4C)cc3)c2)ccc1=O` (single isomer, unassigned) [Example 230, N-[1-[[3-(1-isopropyl-6-oxo-3-pyridyl)phenyl]-phenyl-methyl]-2-[4-(3-methylimidazol-4-yl)anilino]-2-oxo-ethyl]-2-methyl-pyrazole-3-carboxamide], the EC50 was in the range of 100 to 1000 nM.
Regarding `CC(C)n1cc(-c2ccc3c(c2)[C@H]([C@H](NC(=O)c2ccnn2C)C(=O)Nc2ccc(-c4cncn4C)cc2)CCC3)ccc1=O` [Example 44, N-[(1S)-1-[(1R)-7-(1-isopropyl-6-oxo-3-pyridyl)tetralin-1-yl]-2-[4-(3-methylimidazol-4-yl)anilino]-2-oxo-ethyl]-2-methyl-pyrazole-3-carboxamide], the EC50 was 100 to 1000 nM.
For the molecule `Cc1n[nH]c(C)c1-c1ccc(NC(=O)[C@H](Cc2cc(-c3ccc(CN4C[C@H]5C[C@@H]4CO5)cc3)ccc2Cl)NC(=O)C2(F)CC2)cc1` [Example 228, N-[(1S)-1-[[2-chloro-5-[4-[[(1R,4R)-2-oxa-5-azabicyclo[2.2.1]heptan-5-yl]methyl]phenyl]phenyl]methyl]-2-[4-(3,5-dimethyl-1H-pyrazol-4-yl)anilino]-2-oxo-ethyl]-1-fluoro-cyclopropanecarboxamide], the EC50 lay in the range of 100 to 1000 nM.
For `Cc1cnn(C)c1-c1ccc(NC(=O)[C@@H](NC(=O)C2(F)CC2)[C@@H]2CCc3ccc(-c4ccnc(N5CC[C@H](O)C5)c4)cc32)cc1` [Example 359, N-[(1S)-2-[4-(2,4-dimethylpyrazol-3-yl)anilino]-1-[(1R)-6-[2-[(3S)-3-hydroxypyrrolidin-1-yl]-4-pyridyl]indan-1-yl]-2-oxo-ethyl]-1-fluoro-cyclopropanecarboxamide], the EC50 was 100 to 1000 nM.
